Measured values published in ChEMBL document CHEMBL1141332, “Cytotoxic metabolites from an Indonesian sponge Lendenfeldia sp” (J Nat Prod, 2007).

Legend:
Assay type in all cases: functional
[1] = test system: UO-31; experiment: Cytotoxicity against human UO31 cells
[2] = test system: HCT-116; experiment: Cytotoxicity against human HCT116 cells
[3] = test system: MCF7; experiment: Cytotoxicity against human MCF7 cells
[4] = test system: NCI-H23; experiment: Cytotoxicity against human NCI-H23 cells
[5] = test system: PC-3; experiment: Cytotoxicity against human PC3 cells
[6] = test system: SK-MEL-2; experiment: Cytotoxicity against human SK-MEL-2 cells
[7] = test system: NCI-H226; experiment: Cytotoxicity against human NCI-H226 cells
[8] = test system: A549; experiment: Cytotoxicity against human A549 cells
[9] = test system: ACHN; experiment: Cytotoxicity against human ACHN cells
[10] = test system: DU-145; experiment: Cytotoxicity against human DU145 cells
[11] = test system: OVCAR-4; experiment: Cytotoxicity against human OVCAR4 cells
[12] = test system: BT-549; experiment: Cytotoxicity against human BT549 cells
[13] = test system: UACC-257; experiment: Cytotoxicity against human UACC257 cells
[14] = test system: SK-MEL-28; experiment: Cytotoxicity against human SK-MEL-28 cells
[15] = test system: SK-OV-3; experiment: Cytotoxicity against human SK-OV-3 cells
[16] = test system: RPMI-8226; experiment: Cytotoxicity against human RPMI8226 cells
[17] = test system: IGROV-1; experiment: Cytotoxicity against human IGROV1 cells
[18] = test system: Malme-3M; experiment: Cytotoxicity against human MALME-3M cells
[19] = test system: HOP-92; experiment: Cytotoxicity against human HOP92 cells
[20] = test system: HL-60; experiment: Cytotoxicity against human HL60 cells; conditions: Homo sapiens, HL-60
[21] = test system: EKVX; experiment: Cytotoxicity against human EKVX cells
[22] = test system: NCI/ADR-RES; experiment: Cytotoxicity against human NCI/ADR-RES cells
[23] = test system: MDA-MB-435; experiment: Cytotoxicity against human MDA-MB-435 cells
[24] = test system: KM12; experiment: Cytotoxicity against human KM12 cells
[25] = test system: TK-10; experiment: Cytotoxicity against human TK10 cells
[26] = test system: M14; experiment: Cytotoxicity against human M14 cells
[27] = test system: 786-0; experiment: Cytotoxicity against human 786-0 cells
[28] = test system: SNB-75; experiment: Cytotoxicity against human SNB75 cells
[29] = test system: MOLT-4; experiment: Cytotoxicity against human MOLT4 cells
[30] = test system: SNB-19; experiment: Cytotoxicity against human SNB19 cells; conditions: read-out: Log LC50 (the source's name) (converted)
[31] = test system: NCI-H322M; experiment: Cytotoxicity against human NCI-H322M cells
[32] = test system: OVCAR-3; experiment: Cytotoxicity against human OVCAR-3 cells
[33] = test system: UACC-62; experiment: Cytotoxicity against human UACC62 cells
[34] = test system: OVCAR-5; experiment: Cytotoxicity against human OVCAR5 cells
[35] = test system: SF-539; experiment: Cytotoxicity against human SF539 cells
[36] = test system: HCC 2998; experiment: Cytotoxicity against human HCC2998 cells
[37] = Cytotoxicity against human HS578T cells; conditions: Hs-578T
[38] = test system: SN12C; experiment: Cytotoxicity against human SN12C cells
[39] = test system: RXF 393; experiment: Cytotoxicity against human RXF393 cells
[40] = test system: K562; experiment: Cytotoxicity against human K562 cells
[41] = test system: COLO 205; experiment: Cytotoxicity against human COLO205 cells
[42] = test system: LOX IMVI; experiment: Cytotoxicity against human LOX IMVI cells
[43] = test system: SK-MEL-5; experiment: Cytotoxicity against human SK-MEL-5 cells
[44] = test system: HT-29; experiment: Cytotoxicity against human HT29 cells
[45] = test system: NCI-H460; experiment: Cytotoxicity against human NCI-H460 cells
[46] = read-out: Log LC50 (the source's name) (converted)

SMILES: CC1OC(=O)[C@H]2[C@H]1[C@@H](O)C[C@H]1[C@]3(C)CC[C@H]4C(C)(C)CCC[C@]4(C)[C@H]3C[C@@H](O)[C@]21C (stereo partly drawn)
- GI50 [1]: 20.4 µM
- LC50 [1]: 75.9 µM
- TGI ([1]; read-out: Log TGI (converted)): 39.8 µM
- GI50 [2]: 11.2 µM
- CC50 [2, 46]: 47.9 µM
- TGI ([2]; read-out: Log TGI (converted)): 23.4 µM
- GI50 [3]: 34.7 µM
- LC50 [3]: > 100 µM
- TGI ([3]; read-out: Log TGI (converted)): > 100 µM
- GI50 [4]: 20.4 µM
- CC50 [4, 46]: 67.6 µM
- TGI ([4]; read-out: Log TGI (converted)): 37.2 µM
- GI50 [5]: 17 µM
- LC50 [5]: > 100 µM
- TGI ([5]; read-out: Log TGI (converted)): 55 µM
- GI50 [6]: 25.1 µM
- CC50 [6, 46]: > 100 µM
- TGI ([6]; read-out: Log TGI (converted)): 51.3 µM
- GI50 [7]: 20 µM
- CC50 [7, 46]: 87.1 µM
- TGI ([7]; read-out: Log TGI (converted)): 41.7 µM
- GI50 [8]: 15.8 µM
- CC50 [8, 46]: 89.1 µM
- TGI ([8]; read-out: Log TGI (converted)): 37.2 µM
- GI50 [9]: 18.2 µM
- LC50 [9]: 56.2 µM
- TGI ([9]; read-out: Log TGI (converted)): 31.6 µM
- GI50 [10]: 17 µM
- LC50 [10]: 72.4 µM
- TGI ([10]; read-out: Log TGI (converted)): 34.7 µM
- GI50 [11]: 20.9 µM
- CC50 [11, 46]: > 100 µM
- TGI ([11]; read-out: Log TGI (converted)): 60.3 µM
- GI50 [12]: 17 µM
- LC50 [12]: 64.6 µM
- TGI ([12]; read-out: Log TGI (converted)): 33.1 µM
- GI50 [13]: 28.2 µM
- CC50 [13, 46]: > 100 µM
- TGI ([13]; read-out: Log TGI (converted)): 83.2 µM
- GI50 [14]: 20 µM
- CC50 [14, 46]: 66.1 µM
- TGI ([14]; read-out: Log TGI (converted)): 36.3 µM
- GI50 [15]: 38.9 µM
- CC50 [15, 46]: > 100 µM
- TGI ([15]; read-out: Log TGI (converted)): > 100 µM
- GI50 [16]: 16.2 µM
- CC50 [16, 46]: > 100 µM
- TGI ([16]; read-out: Log TGI (converted)): 51.3 µM
- GI50 [17]: 30.9 µM
- CC50 [17, 46]: > 100 µM
- TGI ([17]; read-out: Log TGI (converted)): 81.3 µM
- GI50 [18]: 26.9 µM
- CC50 [18, 46]: 91.2 µM
- TGI ([18]; read-out: Log TGI (converted)): 50.1 µM
- GI50 [19]: 17 µM
- CC50 [19, 46]: 93.3 µM
- TGI ([19]; read-out: Log TGI (converted)): 39.8 µM
- GI50 [20]: 11.7 µM
- CC50 [20, 46]: > 100 µM
- TGI ([20]; read-out: Log TGI (converted)): 36.3 µM
- GI50 [21]: 23.4 µM
- CC50 [21, 46]: 89.1 µM
- TGI ([21]; read-out: Log TGI (converted)): 45.7 µM
- GI50 [22]: 18.6 µM
- LC50 [22]: 83.2 µM
- TGI ([22]; read-out: Log TGI (converted)): 39.8 µM
- GI50 [23]: 19.1 µM
- LC50 [23]: > 100 µM
- TGI ([23]; read-out: Log TGI (converted)): 51.3 µM
- GI50 [24]: 25.1 µM
- CC50 [24, 46]: > 100 µM
- TGI ([24]; read-out: Log TGI (converted)): 69.2 µM
- GI50 [25]: 30.2 µM
- LC50 [25]: > 100 µM
- TGI ([25]; read-out: Log TGI (converted)): 79.4 µM
- GI50 [26]: 19.1 µM
- CC50 [26, 46]: 69.2 µM
- TGI ([26]; read-out: Log TGI (converted)): 36.3 µM
- GI50 [27]: 15.8 µM
- CC50 [27, 46]: 56.2 µM
- TGI ([27]; read-out: Log TGI (converted)): 30.2 µM
- GI50 [28]: 20 µM
- CC50 [28, 46]: > 100 µM
- TGI ([28]; read-out: Log TGI (converted)): 47.9 µM
- GI50 [29]: 4.79 µM
- CC50 [29, 46]: > 100 µM
- TGI ([29]; read-out: Log TGI (converted)): 20.9 µM
- CC50 [30]: 17 µM
- GI50 [31]: 31.6 µM
- CC50 [31, 46]: > 100 µM
- TGI ([31]; read-out: Log TGI (converted)): 93.3 µM
- GI50 [32]: 11.5 µM
- CC50 [32, 46]: 60.3 µM
- TGI ([32]; read-out: Log TGI (converted)): 26.3 µM
- GI50 [33]: 19.5 µM
- CC50 [33, 46]: 97.7 µM
- TGI ([33]; read-out: Log TGI (converted)): 43.7 µM
- GI50 [34]: 20.9 µM
- CC50 [34, 46]: 75.9 µM
- TGI ([34]; read-out: Log TGI (converted)): 39.8 µM
- GI50 [35]: 19.1 µM
- CC50 [35, 46]: 67.6 µM
- TGI ([35]; read-out: Log TGI (converted)): 36.3 µM
- GI50 [36]: 15.5 µM
- CC50 [36, 46]: 56.2 µM
- TGI ([36]; read-out: Log TGI (converted)): 29.5 µM
- GI50 [37]: 19.1 µM
- LC50 [37]: > 100 µM
- TGI ([37]; read-out: Log TGI (converted)): 53.7 µM
- GI50 [38]: 17.4 µM
- LC50 [38]: > 100 µM
- TGI ([38]; read-out: Log TGI (converted)): 46.8 µM
- GI50 [39]: 14.8 µM
- LC50 [39]: 58.9 µM
- TGI ([39]; read-out: Log TGI (converted)): 29.5 µM
- GI50 [40]: 29.5 µM
- CC50 [40, 46]: > 100 µM
- TGI ([40]; read-out: Log TGI (converted)): 55 µM
- GI50 [41]: 15.8 µM
- CC50 [41, 46]: 66.1 µM
- TGI ([41]; read-out: Log TGI (converted)): 32.4 µM
- GI50 [42]: 17.4 µM
- CC50 [42, 46]: 56.2 µM
- TGI ([42]; read-out: Log TGI (converted)): 30.9 µM
- GI50 [43]: 13.5 µM
- CC50 [43, 46]: 52.5 µM
- TGI ([43]; read-out: Log TGI (converted)): 26.3 µM
- GI50 [44]: 17.4 µM
- CC50 [44, 46]: 83.2 µM
- TGI ([44]; read-out: Log TGI (converted)): 38 µM
- GI50 [45]: 20.9 µM
- CC50 [45, 46]: 89.1 µM
- TGI ([45]; read-out: Log TGI (converted)): 42.7 µM
